Measurements: patent US20180142206A1, “REVERSION OF PRIMED PLURIPOTENT STEM CELLS TO NAIVE PLURIPOTENT STEM CELLS” (The J. David Gladstone Institutes, A Testamentary Trust …, priority 2015, published 2018)

Tests used:
Xi-GFP mEpiSCs [1] = assay: Flow cytometric analysis of GFP and CD31 expression in Xi-GFP mEpiSCs; assay type: cell-based, mouse; details: for % of GFP/CD31 double positive cells compared with LIF alone: added to N2B27 medium containing LIF; for LIF induced Xi-reactivation (GFP/CD31 double positive cells): LIF-containing mEpiSC medium with or without Activin A and bFGF
Procedure: To more quantitatively assess the proportion of GFP positive cells under these three culture conditions, Fluorescence Activated Cell Sorting (FACS) was employed. For flow cytometric analyses, Xi-GFP mEpiSCs were dissociated into single cell suspensions with Accutase. The single cells were stained with a CD31 (PECAM) antibody (Clone MEC13.3/BD Bioscience (Franklin Lakes, N.J., USA)) conjugated with allophycocyanin, or APC. The stained cells were analyzed using MACSQuant VYB (Miltenyi Biotec, San Diego, Calif., USA) and FlowJo (FlowJo LLC, Ashland, Oreg., USA) software. […] In the LIF+2i and SNL-CM, the GFP^+ populations were also CD31^+, a marker for mouse naïve pluripotent stem cells (FIG. 1, panel C).
Xi-GFP mEpiSCs were dissociated with Accutase into single cell suspensions, and the single cells were seeded on a fibronectin-coated plate in the Activin A and bFGF-containing medium with two different cell densities (20,000 cells or 3,000 cells/well of a 6-well plate) one day before starting conversion experiments. Twenty-four hours after the seeding, fresh primed media was replenished as a negative control or changed to naïve medium. Assay medium was changed every 24 hours and GFP fluorescent was checked daily by microscopic inspection for eight (with 20,000 starting cells) to 13 days (with 3,000 starting cells).
The naïve media contained 1,000 units LIF (Millipore), 10 ng/ml BMP4 (R&D systems), 64 μg/ml L-ascorbic acid 2-phosphate (Sigma), 10 nM to 100 nM LPA (Avanti Polar Lipids (Alabaster, Ala., USA)), and/or 100 nM OMPT (Avanti Polar Lipids (Alabaster, Ala., USA)) in N2B27 basal medium purchased from StemCells Inc (Palo Alto, Calif., USA) or prepared in house for use in FIGS. 4 and 5. The in house N2B27 medium consists of 500 ml DMEM/F12+GlutaMax (Life Technologies (Carlsbad, Calif., USA), 500 ml Neurobasal medium (Life Technologies (Carlsbad, Calif., USA)), 5 ml N2 supplement (Life Technologies (Carlsbad, Calif., USA)), 10 ml B27 supplement (Life Technologies (Carlsbad, Calif., USA)), 666 μl 7.5% BSA Fraction V (Life Technologies (Carlsbad, Calif., USA)) and 5 ml GlutaMax (Life Technologies (Carlsbad, Calif., USA)/1 liter. At the end of the conversion experiments, the conversion efficiencies were evaluated by counting GFP^+ cell clusters or by flow cytometer.

hiPSCs [2] = assay: Reversion of primed hiPSCs containing episomal reprogramming factors in reversion media; assay type: cell-based, human; details: for conversion to cells with features of naïve pluripotency (dome shaped colonies): 1 μM OMPT, 10 ng/mL LIF in StemFit, no bFGF, TGF-β, laminin-511
Excerpt: These naive-like cells formed three-dimensional dome shaped colonies characteristic of naïve pluripotent stem cells and very different from the colony morphology of primed hiPSCs. […] In addition, they provide the basis for further investigation of whether modulating the LPA-LPAR-RHO signaling axis can be used to generate and maintain human naïve pluripotent stem cells.

[3] = test system: primed pluripotent stem cells; assay: Cell morphology/toxicity of primed PSCs grown in various concentrations of LPA or OMPT
Procedure: To optimize the concentration of LPA and OMPT, primed pluripotent stem cells were grown in various concentrations of LPA or OMPT.

hiPSCs [4] = assay: Reversion of primed integration-free hiPSCs in lipid containing reversion media; assay type: cell-based, human
Procedure: Human iPSCs were generated with episomal vectors expressing Oct4, Sox2, Klf4, myc, Lin28 and shRNA against […] using the methods described by Okita et al. (2011) Nature Methods 8(5):409-412. The hiPSCs were grown in primed media containing bFGF and TGF-β in StemFit basal medium (or mTeSR orE8). Primed hiPSCs were then switched to reversion media and cultured on laminin-511 under hypoxic conditions. The reversion media contained 10 ng/mL LIF, 10 ng/mL Activin A, 100 ng/mL bFGF, 1 μM PD0325901 MEK inhibitor, 1 μM CHIR99021 GSK3β inhibitor, and 2 mM N-acetyl cysteine in StemFit basal medium with various concentrations of lipids (2 μM OMPT, 1 μM OMPT, 1 μM OMPT+20 nM LPA, or no lipids). After 5 to 7 days, three-dimensional dome shaped colonies, characteristic of naïve pluripotent stem cells, were observed. […] The naïve cells also expressed NANOG, KLF4, KLF17 and TFCP2L1, markers for naïve human pluripotent stem cells (FIG. 9).

Xi-GFP mEpiSCs [5] = assay: Xi-reactivation in Xi-GFP mEpiSC reporter line, GFP positive clusters by fluorescence microscopy; assay type: cell-based, mouse; details: exogenous addition to SNL-CM and non-CM+LIF
Procedure: During somatic cell reprogramming the human Xi is reliably reactivated in hiPSCs reprogrammed on SNL feeder cells. […] It was first determined whether the culture conditions that promoted reactivation of the Xi during reprogramming also promoted Xi-reactivation of mouse EpiSCs, which are XaXi. Results of culturing an X-GFP mEpiSC reporter line, in which the green fluorescent protein (GFP) gene is located on the X-chromosome in different media were assayed by fluorescence microscopy. Gillich et al., (2012) Cell Stem Cell 10(4):[…], Bao et al., (2009) Nature 461(7268):1292-1295. Xi-GFP mEpiSCs were kindly provided by Drs. Azim Surani and Siqin Bao and were routinely maintained on a fibronectin (Sigma, St. Louis, Mo., USA)-coated plate (feeder free condition) in N2B27 basal medium (Ndiff 227 medium from StemCells Inc (Palo Alto, Calif., USA) and later from Clontech (Mountain View, Calif., USA) supplemented with 20 ng/ml Activin A (R&D systems (Minneapolis, Minn., USA)) and 12 ng/ml bFGF (Millipore (Billerica, Mass., USA)). Cells were passaged every two to three days at a 1:20 dilution from a previous culture after detached/scraped and dissociated with Accutase (Millipore (Billerica, Mass., USA)).
Cells remain GFP negative when cultured under feeder-free mEpiSC conditions, N2B27 medium containing Activin A and bFGF on fibronectin coated plates (FIG. 1, panels A and B). […]

Molecule: Cc1noc(-c2ccc(CSCCC(=O)O)cc2)c1NC(=O)OC(C)c1ccccc1Cl (stereo not shown) [Ki16425]
- % of GFP^+ cells (Xi-GFP mEpiSCs [1]; added to medium containing LIF+LPA or LIF alone): significantly reduces

Molecule: NC(=O)c1ccc(-c2nc(-c3ccc4c(c3)OCO4)c(-c3ccccn3)[nH]2)cc1 [SB431542]
- % of GFP/CD31 double positive cells (Xi-GFP mEpiSCs [1]; added to MEF-CM containing LIF): enhances induction of the double positive cells

Molecule: lysophosphatidic acid [LPA]
- conversion to cells with features of naïve pluripotency (dome shaped colonies) (hiPSCs [2]): converted to cells with characteristics of naïve PSCs
- NANOG expression of naive-like cells (hiPSCs [2]; antibody staining, FIG. 6): continue to express NANOG
- induction of GFP^+ cells (Xi-GFP mEpiSCs [1]; N2B27, without LIF): induced GFP^+ cells, albeit less efficiently than with LIF
- toxicity to primed pluripotent stem cells ([3]; 50 nM and 100 nM): toxic
- concentration at which cell toxicities were observed ([3]; FIG. 8): ≥ 10 nM

Molecule: O=C1O[C@H]([C@@H](O)CO)C(O)=C1O [ascorbic acid]
- % of GFP/CD31 double positive cells compared with LIF alone (Xi-GFP mEpiSCs [1]): increased

Molecule: bFGF: basic fibroblast growth factor
- LIF induced Xi-reactivation (GFP/CD31 double positive cells) (Xi-GFP mEpiSCs [1]): negative effects

Molecule: CCCCCCCC/C=C\CCCCCCCC(=O)OC[C@H](COP(O)(O)=S)OC [OMPT, 1-oleoyl-2-methyl-sn-glycero-3-phosphothioate]
- time for which three-dimensional dome shaped colonies were maintained (hiPSCs [4]; 2 μM or 1 μM OMPT, or 1 μM OMPT+20 nM LPA, laminin-511, hypoxic, approximately five passages): more than one month
- conversion of hiPSCs to cells with characteristics of naïve PSCs (colony morphology) (hiPSCs [4]; compared to control media containing no lipids, FIG. 7): converts the hiPSCs to cells with characteristics of naïve PSCs
- conversion to cells with features of naïve pluripotency (dome shaped colonies) (hiPSCs [2]): cells with features of naïve pluripotency were observed

B1: BMP4: bone morphogenetic protein (protein, UniProt P12644 293-408, looked up)
Bone morphogenetic protein 4: SPKHHSQRARKKNKNCRRHSLYVDFSDVGWNDWIVAPPGYQAFYCHGDCPFPLADHLNSTNHAIVQTLVNSVNSSIPKACCVPTELSAISMLYLDEYDKVVLKNYQEMVVEGCGCR
- % of GFP/CD31 double positive cells compared with LIF alone (Xi-GFP mEpiSCs [1]): dramatically increased
- GFP/CD31 double positive cells (Xi-GFP mEpiSCs [1]; alone in N2B27 basal medium (without bFGF or Activin A), data not shown): did not induce GFP/CD31 double positive cells

B2: Activin A: cytokine required for maintaining primed pluripotency in mEpiSCs (protein, UniProt Q04998 309-424, looked up)
Inhibin beta A chain: GLECDGKVNICCKKQFFVSFKDIGWNDWIIAPSGYHANYCEGECPSHIAGTSGSSLSFHSTVINHYRMRGHSPFANLKSCCVPTKLRPMSMLYYDDGQNIIKKDIQNMIVEECGCS
modifications: Inhibin beta A chain
- numbers of GFP+ clusters (Xi-GFP mEpiSCs [5]): significantly reduced
- LIF induced Xi-reactivation (GFP/CD31 double positive cells) (Xi-GFP mEpiSCs [1]): negative effects
